Publication PMC5845353, “The selective cathepsin K inhibitor MIV-711 attenuates joint pathology in experimental animal models of osteoarthritis” (Journal of Translational Medicine, 2018)

Test system: rabbits subjected to anterior cruciate ligament transection (ACLT)
Test: Rabbit ACLT study, histomorphometry of bone, cartilage and osteophytes
Type: in vivo
Description: The femora and tibias were decalcified, embedded in paraffin, sectioned at 5-7 µm at two different levels separated by approximately 2 mm, and stained with safranin O and toluidine blue.
Both tibial plateaus and femoral condyles (i.e. four joint compartments) were also subjected to histomorphometric analysis of cartilage, subchondral bone, cancellous bone, and osteophytes. The measurements were made using OsteoMeasureXP version 3.3.0.2 as follows:
Uncalcified cartilage area was measured by tracing the articular surface (cartilage perimeter) and bone or calcified cartilage/uncalcified cartilage interface (cartilage boundary).
Cartilage width was measured by point to point measurement at intersections between a sampling grid with approximately 0.5 mm spacing and the cartilage boundary. The intercepts measured were orthogonal to the cartilage boundary and ended at the cartilage perimeter. At intersections where the cartilage width was zero due to erosion, a value of zero was recorded.
Subchondral bone width was measured by point to point measurement at intersections between a sampling grid with approximately 0.5 mm spacing and the cartilage boundary. The intercepts measured were orthogonal to the cartilage boundary and ended at the first marrow cavity encountered that had at least one dimension approximately equivalent to nearby trabecular thickness.
Osteophyte area was measured for abaxial osteophytes. On the femur, osteophytes associated with the condyles but not with the trochlear grooves were measured.
Bone area (including osteoid) and perimeter were measured in a 3.8 X 1.5 mm ROI centered approximately 1 mm below the bone/cartilage interface. This ROI was intended to be equivalent to the subchondral cancellous bone VOI measured by microCT. Bone volume (BV/TV), trabecular thickness (Tb.Th), trabecular number (Tb.N) and trabecular separation (Tb.Sp) were derived from these measurements using standard formulae.
Slides were evaluated in animal ID order, i.e. in random order with respect to treatment, so that the measurer was effectively blinded to treatment assignment.
Analysis was performed on all four condyles at two levels (Level 1 and 2) for each condyle:
Group 1) sham + vehicle; Group 2) ACLT + vehicle; Group 3) ACLT + MIV-711, 30 µmol/kg (low dose) and Group 4) ACLT + MIV-711, 100 µmol/kg (high dose).

[1] = Level 2, MFC, Group 3: ACLT + MIV-711, 30 µmol/kg (low dose)
[2] = Level 2, MFC, Group 4: ACLT + MIV-711, 100 µmol/kg (high dose)
[3] = Level 2, MTP, Group 3: ACLT + MIV-711, 30 µmol/kg (low dose)
[4] = Level 2, MTP, Group 4: ACLT + MIV-711, 100 µmol/kg (high dose)

## C#C[C@@H]1CN(C(=O)[C@H](CC(C)C)NC(=O)c2ccc(-c3nc(N4CCN(C)CC4)sc3F)cc2)[C@@H]2C(=O)CO[C@H]12 [MIV-711]
Level 1 MFC, Group 4, ACLT + MIV-711 100 µmol/kg
  Tb.Th, Median: 161.50 µm
Level 2, LFC, Group 3
  BV/TV, Mean: 36.23%
  BV/TV, Median: 35.15%
  Cart.Ar, Mean: 1.54 mm2
  Cart.Ar, Median: 1.50 mm2
  Cart.Bd, Mean: 5.95 mm
  Cart.Bd, Median: 5.45 mm
  Cart.Pm, Mean: 6.68 mm
  Cart.Pm, Median: 6.07 mm
  Cart.Wi, Mean: 252.24 µm
  Cart.Wi, Median: 265.00 µm
  Ophte.Ar, Mean: 1.80 mm2
  Ophte.Ar, Median: 1.91 mm2
  SCB.Wi, Mean: 625.26 µm
  SCB.Wi, Median: 686.73 µm
  Tb.N, Mean: 2.86 1/mm
  Tb.N, Median: 3.01 1/mm
  Tb.Sp, Mean: 227.32 µm
  Tb.Sp, Median: 224.93 µm
  Tb.Th, Mean: 129.54 µm
  Tb.Th, Median: 124.26 µm
Level 2, LFC, Group 4
  BV/TV, Mean: 36.75%
  BV/TV, Median: 38.04%
  Cart.Ar, Mean: 1.69 mm2
  Cart.Ar, Median: 1.76 mm2
  Cart.Bd, Mean: 7.36 mm
  Cart.Bd, Median: 7.45 mm
  Cart.Pm, Mean: 8.13 mm
  Cart.Pm, Median: 8.16 mm
  Cart.Wi, Mean: 223.79 µm
  Cart.Wi, Median: 238.09 µm
  Ophte.Ar, Mean: 4.60 mm2
  Ophte.Ar, Median: 1.57 mm2
  SCB.Wi, Mean: 500.70 µm
  SCB.Wi, Median: 462.81 µm
  Tb.N, Mean: 3.05 1/mm
  Tb.N, Median: 2.97 1/mm
  Tb.Sp, Mean: 212.50 µm
  Tb.Sp, Median: 210.44 µm
  Tb.Th, Mean: 120.73 µm
  Tb.Th, Median: 120.14 µm
Level 2, LTP, Group 3
  BV/TV, Mean: 42.02%
  BV/TV, Median: 40.17%
  Cart.Ar, Mean: 0.88 mm2
  Cart.Ar, Median: 0.95 mm2
  Cart.Bd, Mean: 4.27 mm
  Cart.Bd, Median: 4.41 mm
  Cart.Pm, Mean: 4.26 mm
  Cart.Pm, Median: 4.48 mm
  Cart.Wi, Mean: 207.98 µm
  Cart.Wi, Median: 203.75 µm
  Ophte.Ar, Mean: 1.40 mm2
  Ophte.Ar, Median: 1.23 mm2
  SCB.Wi, Mean: 531.17 µm
  SCB.Wi, Median: 547.82 µm
  Tb.N, Mean: 2.93 1/mm
  Tb.N, Median: 3.04 1/mm
  Tb.Sp, Mean: 202.17 µm
  Tb.Sp, Median: 206.70 µm
  Tb.Th, Mean: 146.36 µm
  Tb.Th, Median: 148.82 µm
Level 2, LTP, Group 4
  BV/TV, Mean: 39.84%
  BV/TV, Median: 38.48%
  Cart.Ar, Mean: 1.20 mm2
  Cart.Ar, Median: 1.00 mm2
  Cart.Bd, Mean: 4.73 mm
  Cart.Bd, Median: 4.37 mm
  Cart.Pm, Mean: 5.10 mm
  Cart.Pm, Median: 4.58 mm
  Cart.Wi, Mean: 263.50 µm
  Cart.Wi, Median: 255.71 µm
  Ophte.Ar, Mean: 1.37 mm2
  Ophte.Ar, Median: 1.37 mm2
  SCB.Wi, Mean: 559.05 µm
  SCB.Wi, Median: 594.94 µm
  Tb.N, Mean: 2.47 1/mm
  Tb.N, Median: 2.50 1/mm
  Tb.Sp, Mean: 250.77 µm
  Tb.Sp, Median: 246.02 µm
  Tb.Th, Mean: 161.80 µm
  Tb.Th, Median: 153.89 µm
Level 2, MFC, Group 3
  BV/TV, Mean: 50.84%
  BV/TV, Median: 46.53%
[1]
  Cart.Ar, Mean: 1.47 mm2
  Cart.Ar, Median: 1.46 mm2
  Cart.Bd, Mean: 6.28 mm
  Cart.Bd, Median: 6.09 mm
  Cart.Pm, Mean: 6.91 mm
  Cart.Pm, Median: 6.73 mm
  Cart.Wi, Mean: 223.23 µm
  Cart.Wi, Median: 234.59 µm
  Ophte.Ar, Mean: 2.89 mm2
  Ophte.Ar, Median: 3.00 mm2
  SCB.Wi, Mean: 694.43 µm
  SCB.Wi, Median: 608.27 µm
  Tb.N, Mean: 2.80 1/mm
  Tb.N, Median: 2.86 1/mm
  Tb.Sp, Mean: 174.68 µm
  Tb.Sp, Median: 185.17 µm
  Tb.Th, Mean: 189.67 µm
  Tb.Th, Median: 161.11 µm
Level 2, MFC, Group 4
  BV/TV, Mean: 43.61%
  BV/TV, Median: 41.52%
[2]
  Cart.Ar, Mean: 1.41 mm2
  Cart.Ar, Median: 1.41 mm2
  Cart.Bd, Mean: 6.12 mm
  Cart.Bd, Median: 6.18 mm
  Cart.Pm, Mean: 6.67 mm
  Cart.Pm, Median: 6.55 mm
  Cart.Wi, Mean: 222.96 µm
  Cart.Wi, Median: 218.64 µm
  Ophte.Ar, Mean: 2.78 mm2
  Ophte.Ar, Median: 2.43 mm2
  SCB.Wi, Mean: 570.45 µm
  SCB.Wi, Median: 510.39 µm
  Tb.N, Mean: 3.01 1/mm
  Tb.N, Median: 3.07 1/mm
  Tb.Sp, Mean: 189.22 µm
  Tb.Sp, Median: 197.91 µm
  Tb.Th, Mean: 144.65 µm
  Tb.Th, Median: 140.49 µm
[3]
  BV/TV, Mean: 39.18%
  BV/TV, Median: 39.13%
  Cart.Ar, Mean: 0.74 mm2
  Cart.Ar, Median: 0.67 mm2
  Cart.Bd, Mean: 2.32 mm
  Cart.Bd, Median: 2.31 mm
  Cart.Pm, Mean: 2.43 mm
  Cart.Pm, Median: 2.27 mm
  Cart.Wi, Mean: 312.01 µm
  Cart.Wi, Median: 270.73 µm
  Ophte.Ar, Mean: 5.73 mm2
  Ophte.Ar, Median: 3.43 mm2
  SCB.Wi, Mean: 747.49 µm
  SCB.Wi, Median: 739.43 µm
  Tb.N, Mean: 2.37 1/mm
  Tb.N, Median: 2.27 1/mm
  Tb.Sp, Mean: 257.90 µm
  Tb.Sp, Median: 251.22 µm
  Tb.Th, Mean: 166.79 µm
  Tb.Th, Median: 176.63 µm
[4]
  BV/TV, Mean: 33.87%
  BV/TV, Median: 33.99%
  Cart.Ar, Mean: 1.78 mm2
  Cart.Ar, Median: 0.71 mm2
  Cart.Bd, Mean: 2.50 mm
  Cart.Bd, Median: 2.18 mm
  Cart.Pm, Mean: 2.70 mm
  Cart.Pm, Median: 2.14 mm
  Cart.Wi, Mean: 282.89 µm
  Cart.Wi, Median: 257.34 µm
  Ophte.Ar, Mean: 10.32 mm2
  Ophte.Ar, Median: 6.59 mm2
  SCB.Wi, Mean: 575.52 µm
  SCB.Wi, Median: 691.04 µm
  Tb.N, Mean: 2.15 1/mm
  Tb.N, Median: 1.97 1/mm
  Tb.Sp, Mean: 317.92 µm
  Tb.Sp, Median: 313.76 µm
  Tb.Th, Mean: 160.02 µm
  Tb.Th, Median: 151.52 µm
